Assay results reported in ChEMBL document CHEMBL1177664, “Development of tryptase inhibitors derived from thalidomide” (Bioorg Med Chem, 2010).
The source made the active and inactive calls. The calls are words filed in the database; no cut-off is given here.

What was measured:
[1] = (§1) Inhibition of human tryptase-beta after 5 mins by fluorimetric analysis
[2] = species on record: Homo sapiens; assay: Inhibition of human tryptase-beta at 30 uM after 5 mins by fluorimetric analysis
[3] = species on record: Homo sapiens; assay: as §1
[4] = species on record: Homo sapiens; assay: Competitive inhibition of human tryptase-beta by Lineweaver-Burke plot analysis
[5] = Binding affinity to human tryptase-beta after 3 mins
[6] = Binding affinity to bovine type 1 trypsin after 3 mins; set-up: species or system Bos taurus
[7] = target: Prothrombin (Bos taurus, UniProt P00735); assay: Binding affinity to bovine thrombin after 3 mins

Structure (SMILES) | IC50 [1] | inhibition [2] | also measured
COc1ccccc1N1C(=O)c2ccc(OC(=O)CCc3ccc(N)cc3)cc2C1=O | 1100 nM |  | 
CN1C(=O)c2ccc(OC(=O)c3ccc(N)cc3)cc2C1=O |  | inactive | 
CN1C(=O)c2ccc(OC(=O)CCc3ccncc3)cc2C1=O | > 30000 nM |  | 
CC(C)N1C(=O)c2ccc(OC(=O)CCc3ccc(N)cc3)cc2C1=O | 1200 nM |  | 
CCCN1C(=O)c2ccc(OC(=O)CCc3ccc(N)cc3)cc2C1=O | 1200 nM |  | 
CN1C(=O)c2ccc(OC(=O)CCCc3ccc(N)cc3)cc2C1=O |  | inactive | 
COc1cc(CCC(=O)Oc2ccc3c(c2)C(=O)N(C)C3=O)ccc1N | > 30000 nM |  | 
COc1cc(N)ccc1CCC(=O)Oc1ccc2c(c1)C(=O)N(C)C2=O | 1800 nM |  | 
COc1ccc(N2C(=O)c3ccc(OC(=O)CCc4ccc(N)cc4)cc3C2=O)cc1 | 390 nM |  | 
CN1C(=O)c2ccc(OC(=O)c3ccccc3N)cc2C1=O | 1500 nM | inactive | 
Nc1ccc(CCC(=O)Oc2ccc3c(c2)C(=O)N(c2ccc(N)cc2)C3=O)cc1 | 820 nM |  | 
Cc1ccc(N2C(=O)c3ccc(OC(=O)CCc4ccc(N)cc4)cc3C2=O)cc1 | 1200 nM |  | 
CN1C(=O)c2ccc(OC(=O)Cc3ccc(N)cc3)cc2C1=O |  | inactive | 
CN1C(=O)c2ccc(OC(=O)c3cccc(N)c3)cc2C1=O |  | inactive | 
N#Cc1ccc(N2C(=O)c3ccc(OC(=O)CCc4ccc(N)nc4)cc3C2=O)cc1 | 78 nM |  | inhibition [3]: Dose-dependent effect; inhibition [4]: Active; Ki [5]: 44 nM; Ki [6]: 880 nM; Ki [7]: 16000 nM
CN1C(=O)c2ccc(OC(=O)CCc3ccccc3)cc2C1=O |  | inactive | 

Structure (SMILES) | IC50 [1] | inhibition [2] | also measured
CN1C(=O)c2ccc(OC(=O)CCc3cccc(N)c3)cc2C1=O |  | inactive | 
COc1ccc(CCC(=O)Oc2ccc3c(c2)C(=O)N(C)C3=O)cc1 |  | inactive | 
CN1C(=O)c2ccc(OC(=O)CCc3cnc(N)nc3)cc2C1=O | 7800 nM |  | 
Nc1ccc(CCC(=O)Oc2ccc3c(c2)C(=O)N(C2CCCCC2)C3=O)cc1 | 1200 nM |  | 
CN1C(=O)c2ccc(OC(=O)CCc3ccc(N)cc3)cc2C1=O | 1500 nM | 98% | Ki [5]: 1700 nM; Ki [6]: 13000 nM; Ki [7]: 15000 nM
CCCCCCN1C(=O)c2ccc(OC(=O)CCc3ccc(N)cc3)cc2C1=O | 1500 nM |  | 
Nc1ccc(CCC(=O)Oc2ccc3c(c2)C(=O)N(c2ccc(F)cc2)C3=O)cc1 | 1700 nM |  | 
Nc1ccc(CCC(=O)Oc2ccc3c(c2)C(=O)N(c2ccccc2)C3=O)cc1 | 1300 nM |  | 
CN1C(=O)c2ccc(OC(=O)Cc3cccc(N)c3)cc2C1=O |  | 46% | 
Nc1ccc(CCC(=O)Oc2ccccc2)cc1 |  | inactive | 
CN1C(=O)c2ccc(OC(=O)CCc3ccc(N)nc3)cc2C1=O | 400 nM |  | inhibition [4]: Active; Ki [5]: 340 nM; Ki [6]: 2900 nM; Ki [7]: 7000 nM
CC(C)(C)c1ccc(N2C(=O)c3ccc(OC(=O)CCc4ccc(N)cc4)cc3C2=O)cc1 |  | inactive | 
N#Cc1ccc(N2C(=O)c3ccc(OC(=O)CCc4ccc(N)cc4)cc3C2=O)cc1 | 340 nM |  | inhibition [4]: Active; Ki [5]: 190 nM; Ki [6]: 4300 nM; Ki [7]: 8600 nM
Nc1ccc(CCC(=O)Oc2ccc3c(c2)C(=O)N(c2ccc(C(F)(F)F)cc2)C3=O)cc1 |  | inactive | 
COc1cccc(N2C(=O)c3ccc(OC(=O)CCc4ccc(N)cc4)cc3C2=O)c1 | 650 nM |  | 
CN1C(=O)c2ccc(OC(=O)CCc3ccc(N(C)C)cc3)cc2C1=O |  | inactive | 
